# Measured values as given in patent publication US10183943B2, “Heterocyclic compounds and their use in preventing or treating bacterial infections” (MUTABILIS, priority 2015, dated 2019).
# Counter-ions that a name gives are not always drawn.
# Legend:
# [1] = target: T1, OXA-11 (Pseudomonas aeruginosa, UniProt Q06778); experiment: β-lactamase inhibitory activity, determination of IC50 (nitrocefin hydrolysis); format: biochemical
# T1 construct: made in house; host or cells: E. coli
# [2] = test system: E. cloacae UFR51 (SHV-12, IMP-8); experiment: MIC of ceftazidime (CAZ) in combination with compounds at 4 μg/mL, broth microdilution; format: cell-based; conditions: strain UFR51; MIC of CAZ with compound fixed at 4 μg/mL
# Summary of the method: (§1)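 Compounds were dissolved in DMSO and spotted onto plates. Log-phase cells were then added at 5×10^5 cfu/mL in cation-adjusted Mueller-Hinton broth, incubated 16-20 h at 35° C, and the MIC was scored visually as the lowest growth-inhibiting concentration.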
# [3] = test system: E. coli UFR41 (TEM-1, CTX-M-15, CMY-2, OXA-1, NDM-4); experiment: as above; format: cell-based; conditions: strain UFR41; MIC of CAZ with compound fixed at 4 μg/mL
# Summary of the method: as §1
# [4] = test system: E. cloacae UFR70 (TEM-1, CTX-M-15, CMY-2, OXA-1, Porin loss); experiment: MIC of compounds alone, broth microdilution; format: cell-based; conditions: Enterobacter cloacae, read-out: MIC compounds of the invention alone
# Summary of the method: (§2)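 Each compound, tested on its own, is serially diluted against a 5×10^5 cfu/mL log-phase suspension in cation-adjusted Mueller-Hinton broth following CLSI M7-A7. After 16-20 h at 35° C in air, the lowest concentration showing no visible growth gives the MIC.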
# [5] = test system: E. cloacae UFR85 (TEM-1, CTX-M-15, AmpC); experiment: MIC of compounds alone, broth microdilution; format: cell-based; conditions: Enterobacter cloacae, read-out: MIC compounds of the invention alone
# Summary of the method: as §2
# [6] = test system: E. cloacae 260508 (TEM-1, CTX-M-15); experiment: MIC of compounds alone, broth microdilution; format: cell-based; conditions: Enterobacter cloacae, read-out: MIC compounds of the invention alone
# Summary of the method: as §2
# [7] = test system: K. pneumoniae UFR68 (TEM-1, SHV-11, CTX-M-15, KPC-3); experiment: MIC of compounds alone, broth microdilution; format: cell-based; conditions: Klebsiella pneumoniae, read-out: MIC compounds of the invention alone
# Summary of the method: as §2
# [8] = target: T2, OXA-48 (Klebsiella pneumoniae, UniProt Q6XEC0); experiment: β-lactamase inhibitory activity, determination of IC50 (nitrocefin hydrolysis); format: biochemical; conditions: class (D); nitrocefin 200 μM, 30 min pre-incubation; read-out: IC50 β-lactamase OXA-48
# T2 construct: made in house; host or cells: E. coli
# [9] = target: AmpC P. aeruginosa (Pseudomonas aeruginosa, UniProt P24735); experiment: as above
# [10] = target: T3, KPC-2 (Klebsiella pneumoniae, UniProt Q9F663); experiment: as above; format: biochemical; conditions: class (A); nitrocefin 200 μM, 30 min pre-incubation; read-out: IC50 β-lactamase KPC-2
# T3 construct: made in house; host or cells: E. coli
# [11] = test system: E. coli 190317 (TEM-1, SHV-12, CTX-M-15, OXA-1); experiment: MIC of compounds alone, broth microdilution; format: cell-based; conditions: Escherichia coli, read-out: MIC compounds of the invention alone
# Summary of the method: as §2
# T1 sequence (Q06778 21-266): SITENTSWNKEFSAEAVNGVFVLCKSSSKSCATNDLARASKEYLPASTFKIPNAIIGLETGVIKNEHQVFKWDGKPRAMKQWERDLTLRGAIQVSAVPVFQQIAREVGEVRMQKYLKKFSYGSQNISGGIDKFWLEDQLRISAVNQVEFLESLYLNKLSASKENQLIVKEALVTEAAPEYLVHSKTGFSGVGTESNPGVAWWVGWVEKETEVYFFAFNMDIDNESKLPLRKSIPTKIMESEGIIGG
# T3 sequence (Q9F663 25-293 limits assumed): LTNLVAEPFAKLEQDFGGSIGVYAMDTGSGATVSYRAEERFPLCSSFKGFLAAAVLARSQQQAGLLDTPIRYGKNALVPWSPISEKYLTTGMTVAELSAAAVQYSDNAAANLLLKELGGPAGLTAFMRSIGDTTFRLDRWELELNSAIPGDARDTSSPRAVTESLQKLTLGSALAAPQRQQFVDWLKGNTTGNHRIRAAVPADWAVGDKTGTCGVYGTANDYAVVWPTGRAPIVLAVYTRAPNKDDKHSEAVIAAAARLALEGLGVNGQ
# Sequence of AmpC P. aeruginosa (P24735 27-397): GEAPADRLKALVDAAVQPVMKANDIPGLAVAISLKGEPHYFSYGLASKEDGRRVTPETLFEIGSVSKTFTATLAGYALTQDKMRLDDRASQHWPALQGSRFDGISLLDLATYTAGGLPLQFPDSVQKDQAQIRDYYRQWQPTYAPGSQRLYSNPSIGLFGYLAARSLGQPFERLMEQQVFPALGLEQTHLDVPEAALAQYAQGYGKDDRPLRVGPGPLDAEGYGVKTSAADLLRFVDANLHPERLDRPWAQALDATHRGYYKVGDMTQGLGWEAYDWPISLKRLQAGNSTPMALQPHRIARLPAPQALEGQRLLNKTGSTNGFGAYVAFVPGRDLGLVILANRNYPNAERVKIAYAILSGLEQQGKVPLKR
# T2 sequence (Q6XEC0 23-265 limits assumed): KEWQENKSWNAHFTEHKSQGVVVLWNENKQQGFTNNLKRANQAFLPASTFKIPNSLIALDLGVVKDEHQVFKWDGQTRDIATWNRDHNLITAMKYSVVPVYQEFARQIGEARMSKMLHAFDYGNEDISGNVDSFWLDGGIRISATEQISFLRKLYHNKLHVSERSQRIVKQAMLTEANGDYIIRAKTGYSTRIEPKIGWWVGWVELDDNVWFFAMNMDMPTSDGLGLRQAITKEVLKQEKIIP
Structure (SMILES),IC50 [1] [nM],MIC combination of CAZ and compounds of the invention at 4 μg/mL [2] [µg/mL],MIC combination of CAZ and compounds of the invention at 4 μg/mL [3],MIC [4] [µg/mL],MIC [5] [µg/mL],MIC [6] [µg/mL],MIC [7] [µg/mL],IC50 [8] [nM],IC50 [9] [nM],IC50 [10] [nM],MIC [11] [µg/mL]
"O=C1N2CC=C(c3cnco3)C(C2)N1OS(=O)(=O)[O-].[Na+] (centres unmarked) [Example 3, Sodium [4-(oxazol-5-yl)-7-oxo-1,6-diazabicyclo[3.2.1]oct-3-en-6-yl]sulfate]",1100,<0.25,>64 µg/mL,8,> 32,16,> 32,3.5,2000,290,
"Cn1cc(C2=CCN3CC2N(OS(=O)(=O)[O-])C3=O)cnc1=O.[Na+] (centres unmarked) [Example 15, Sodium [4-(N-methyl-2-oxo-pyrimidin-5-yl)-7-oxo-1,6-diazabicyclo[3.2.1]oct-3-en-6-yl] sulfate]",2600,1,,8,> 32,,> 32,7.9,3500,110,
"Cn1ncc(C2=CCN3CC2N(OS(=O)(=O)[O-])C3=O)cc1=O.[Na+] (centres unmarked) [Example 19, Sodium [4-(1-methyl-6-oxo-pyridazin-4-yl)-7-oxo-1,6-diazabicyclo[3.2.1]oct-3-en-6-yl] sulfate]",290,<0.25,>64 µg/mL,16,> 32,,> 32,4.7,1800,46,2
"O=C1N2CC(c3ncco3)=CC(C2)N1OS(=O)(=O)[O-].[Na+] (centres unmarked) [Example 25, Sodium [3-(oxazol-2-yl)-7-oxo-1,6-diazabicyclo[3.2.1]oct-3-en-6-yl]sulfate]",190,<0.25,0.25 µg/mL,2,2,4,,6.6,97,30,
"NCc1cnc(C2=CC3CN(C2)C(=O)N3OS(=O)(=O)O)s1 (centres unmarked) [Example 38, [3-[5-(aminomethyl)thiazol-2-yl]-7-oxo-1,6-diazabicyclo[3.2.1]oct-3-en-6-yl] hydrogen sulfate]",560,<0.25,<=0.25 μg/mL,,,> 32,,7.7,320,19,1
"O=C1N2CC(c3ncco3)=C[C@H](C2)N1OS(=O)(=O)[O-].[Na+] [Example 44, Sodium [(5R)-3-(oxazol-2-yl)-7-oxo-1,6-diazabicyclo[3.2.1]oct-3-en-6-yl] sulfate]",46,<0.25,<0.25 µg/mL,,2,,4,1.5,75,11,
